{"source": "paper PMC5506375", "about": "(Journal of medicinal chemistry, 2017)", "key": {"[1]": {"target": "C. jejuni NCTC 11168 PglD acetyltransferase (Campylobacter jejuni subsp. jejuni serotype O:2, UniProt Q0P9D1)", "sequence (Q0P9D1 whole entry)": "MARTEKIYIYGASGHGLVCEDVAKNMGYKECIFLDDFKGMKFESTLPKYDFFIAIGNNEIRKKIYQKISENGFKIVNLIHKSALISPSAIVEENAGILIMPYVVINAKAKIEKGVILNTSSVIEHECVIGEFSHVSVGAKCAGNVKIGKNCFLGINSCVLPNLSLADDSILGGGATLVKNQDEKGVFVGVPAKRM", "assay": "continuous C. jejuni PglD inhibition assay", "type": "biochemical", "details": "for Km: PglD substrates"}, "solubility properties": {"assay": "solubility properties", "type": "physicochemical"}, "[2]": {"assay": "long-term stability in solution", "type": "physicochemical"}, "C jejuni PglD [3]": {"target": "T1, C jejuni PglD (Campylobacter jejuni subsp. jejuni serotype O:2, UniProt Q0P9D1)", "T1 sequence (Q0P9D1 whole entry)": "as above", "assay": "PglD inhibition assay with varying substrate concentrations", "type": "biochemical"}, "C jejuni PglD [4]": {"target": "T1, C jejuni PglD", "assay": "dynamic light scattering of PglD/inhibitor complex", "details": "apo PglD 31% PDI"}, "F. tularensis": {"system": "F. tularensis", "details": "both pre- and post-infection; cited from earlier work"}, "[5]": {"details": "at therapeutic doses; cited from earlier work"}, "pathogen growth": {"system": "pathogen growth", "details": "in vitro; cited from earlier work"}, "S. typhimurium": {"system": "S. typhimurium", "details": "mouse infection model; cited from earlier work"}}, "data": [{"smiles": "CC(=O)SCCNC(=O)CCNC(=O)[C@H](O)C(C)(C)COP(=O)(O)OP(=O)(O)OC[C@H]1O[C@@H](n2cnc3c(N)ncnc32)[C@H](O)[C@@H]1OP(=O)(O)O", "note": "[AcCoA, acetyl coenzyme A]", "values": [{"measurement": "Km", "setting": "[1]", "result": 295, "unit": "µM"}]}, {"smiles": "Cc1c(C(=O)O)sc2nc(/C=C/c3ccc4[nH]ccc4c3)[nH]c(=O)c12", "note": "[Compound 4]", "values": [{"measurement": "solubility properties", "setting": "solubility properties", "result": "poor solubility properties"}, {"measurement": "long-term stability in solution", "setting": "[2]", "result": "poor long-term stability in solution"}]}, {"smiles": "COc1cc(CCNc2nc(CCc3ccccc3)nc3sc(C(=O)O)c(C)c23)cc(OC)c1", "note": "[Compound 37, 4-((3,5-Dimethoxyphenethyl)amino)-5-methyl-2-phenethylthieno[2,3-d]pyrimidine-6-carboxylic acid]", "values": [{"measurement": "decrease in potency", "setting": "C jejuni PglD [3]; 2-fold increase in AcCoA", "result": 2, "unit": "fold"}, {"measurement": "decrease in potency", "setting": "C jejuni PglD [3]; 5-fold increase in AcCoA", "result": 4, "unit": "fold"}, {"measurement": "effect of higher UDP-4-amino-sugar concentrations on the inhibition", "setting": "C jejuni PglD [3]; significantly higher UDP-4-amino-sugar concentrations", "result": "no measurable effect"}]}, {"smiles": "CNc1nc(CCc2ccccn2)nc2sc(C(=O)O)c(C)c12", "note": "[Compound 43, 5-Methyl-4-(methylamino)-2-(2-(pyridin-2-yl)ethyl)thieno[2,3-d]pyrimidine-6-carboxylic acid]", "values": [{"measurement": "enhancement of potency versus 17", "setting": "[1]; 43 vs 17", "result": 4.8, "unit": "fold"}]}, {"smiles": "CO[C@H](CNc1nc(CCc2ccc(NC(C)=O)cc2)nc2sc(C(=O)O)c(C)c12)c1ccccc1", "note": "[Compound 55, (S)-2-(4-Acetamidophenethyl)-4-((2-methoxy-2-phenylethyl)amino)-5-methylthieno[2,3-d]pyrimidine-6-carboxylic acid]", "values": [{"measurement": "polydispersity index (PDI) of PglD/inhibitor complex", "setting": "C jejuni PglD [4]", "result": 24, "unit": "% PDI"}]}, {"smiles": "O=S(=O)(Nc1ccccc1)c1ccc(NC(=S)Nc2ccccc2)cc1", "note": "[Compound 56, N-phenyl-4-(3-phenylthioureido)benzenesulfonamide]", "values": [{"measurement": "protection against F. tularensis", "setting": "F. tularensis", "result": "provided protection"}, {"measurement": "toxicity", "setting": "[5]", "result": "not toxic"}, {"measurement": "effect on pathogen growth", "setting": "pathogen growth", "result": "did not affect pathogen growth"}, {"measurement": "efficacy against S. typhimurium", "setting": "S. typhimurium", "result": "prophylactic efficacy"}]}, {"smiles": "CC(=O)N[C@H]1[C@@H](OP(=O)(O)OP(=O)(O)OC[C@H]2O[C@@H](n3ccc(=O)[nH]c3=O)[C@H](O)[C@@H]2O)O[C@H](C)[C@@H](N)[C@@H]1O", "note": "[UDP-4-amino-sugar]", "values": [{"measurement": "Km", "setting": "[1]", "result": 274, "unit": "µM"}]}]}
